Our source for the cytotoxic effects, inhibition and IC50 values is patent publication US9745299B2, “Substituted tricyclic benzimidazoles as kinase inhibitors” (SELVITA SA, priority 2012, dated 2017).

Usually IC50 stands for the concentration needed to halve the response being measured.

The subject of data set [1] is MV4-11 acute myelocytic leukemia (AML). In words: Cytotoxic effects, MV4-11. Format: cell-based, human.
Data set [2] deals with T1, CDK7/CyclinH/MAT1 (Homo sapiens, UniProt P50613).
T1 construct: purchased Millipore, Billerica, Mass., USA
In words: ADP-Glo Kinase Assay, CDK7/CyclinH/MAT1. Format: biochemical. The settings on record: read-out: % inhibition at 1 μM CDK7/CyclinH/MAT1. As for the experimental part: (§1) Testing of the compounds described in this invention was carried out using the ADP-Glo™ Kinase Assay from Promega Corporation (Madison, Wis., USA).
(§2) The ADP-Glo™ Kinase Assay is a luminescent ADP detection assay to measure kinase activity by quantifying the amount of ADP produced during a kinase reaction. The kinase assay is performed in kinase assay buffer (5 mM MOPS, pH 7.5, 5 mM MgCl2, 0.4 mM EDTA, 1.5 mM DTT). Test samples initially dissolved in DMSO at 10 mM were diluted with the assay buffer to 1000 nM. A 30 μL volume/well of a mixture of substrates containing ATP (final ATP concentration in each kinase assay was equal to its apparent ATP Km).
(§3) The assay was performed in two steps: first, after the kinase reaction, an equal volume of ADP-Glo™ Reagent was added to terminate the kinase reaction and deplete the remaining ATP. Second, the Kinase Detection Reagent was added to simultaneously convert ADP to ATP and allowed the newly synthesized ATP to be measured using a luciferase/luciferin reaction. The luminescent signal generated was proportional to the ADP concentration produced and was correlated with kinase activity.
In general terms: ADP-Glo first removes unused ATP, then detects ADP through luciferase.

For data set [3], the target named is T2, CDK5/p25 (Homo sapiens, UniProt Q00535).
T2 construct: purchased Millipore, Billerica, Mass., USA
Put plainly: ADP-Glo Kinase Assay, CDK5/p25. Further: ATP at apparent Km (12 µM). Format: biochemical. The settings on record: read-out: % inhibition at 1 μM CDK5/p25. The method, then:
as §1, §2, §3

The subject of data set [4] is A549 lung carcinoma. In words: Cytotoxic effects, A549. Format: cell-based, human.
The target of data set [5] is T3, CDK8/CyclinC (Homo sapiens, UniProt P49336).
T3 construct: purchased ProQinase, Freiburg, Germany
In words: ADP-Glo Kinase Assay, CDK8/CyclinC. Further: ATP at apparent Km (53 µM). It is filed as biochemical. The settings on record: read-out: % inhibition at 1 μM CDK8/CyclinC. In a few lines: (§4)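 ADP-Glo luminescent ADP detection measured kinase activity: remaining ATP depleted, ADP converted to ATP for luciferase read-out.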

In data set [6] the test system is SK-MEL5 melanoma. Put plainly: Cytotoxic effects, SK-MEL5. It is filed as cell-based, human.
In data set [7] the target is T4, CDK2/CyclinE (Homo sapiens, UniProt P24941).
T4 construct: purchased Millipore, Billerica, Mass., USA
Put plainly: ADP-Glo Kinase Assay, CDK2/CyclinE. Format: biochemical. The settings on record: read-out: % inhibition at 1 μM CDK2/CyclinE. In a few lines:
as §4

The subject of data set [8] is Rec-1 B-cell lymphoma. In words: Cytotoxic effects, Rec-1. It is filed as cell-based, human.
In data set [9] the test system is HCT116 cells. Put plainly: MTS viability assay, HCT116. It is filed as cell-based. The settings on record: Homo sapiens, HCT-116, HCT116, 72 hour incubation, read-out: IC50 [μM] HCT116 ED50. In a few lines:
(§5)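 Colon cancer lines, 10,000-20,000 cells/well in DMEM with 10% FBS, were treated with serially diluted compound for 72 h at 37 °C, 5% CO2. Viability came from MTS tetrazolium reduction after 2 h further incubation, read as absorbance at 490 nm.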
A general note: Tetrazolium assays rely on reduction of a dye to a coloured formazan, in cell work by metabolically active cells.

The subject of data set [10] is MCF7 breast adenocarcinoma. Put plainly: Cytotoxic effects, MCF7. It is filed as cell-based, human.
In data set [11] the target is T5, CDK1/CyclinB (Homo sapiens, UniProt P06493).
T5 construct: purchased Millipore, Billerica, Mass., USA
Put plainly: ADP-Glo Kinase Assay, CDK1/CyclinB. Further: ATP at apparent Km (20 µM). It is filed as biochemical. The settings on record: read-out: % inhibition at 1 μM CDK1/CyclinB. The method, then: Testing of the compounds described in this invention was carried out using the ADP-Glo™ Kinase Assay from Promega Corporation (Madison, Wis., USA). […] The ADP-Glo™ Kinase Assay is a luminescent ADP detection assay to measure kinase activity by quantifying the amount of ADP produced during a kinase reaction. The kinase assay is performed in kinase assay buffer (5 mM MOPS, pH 7.5, 5 mM MgCl2, 0.4 mM EDTA, 1.5 mM DTT). Test samples initially dissolved in DMSO at 10 mM were diluted with the assay buffer to 1000 nM. A 30 μL volume/well of a mixture of substrates containing ATP (final ATP concentration in each kinase assay was equal to its apparent ATP Km). […] The assay was performed in two steps: first, after the kinase reaction, an equal volume of ADP-Glo™ Reagent was added to terminate the kinase reaction and deplete the remaining ATP. Second, the Kinase Detection Reagent was added to simultaneously convert ADP to ATP and allowed the newly synthesized ATP to be measured using a luciferase/luciferin reaction. The luminescent signal generated was proportional to the ADP concentration produced and was correlated with kinase activity.

In data set [12] the test system is HepG2 hepatocarcinoma. Put plainly: Cytotoxic effects, HepG2. It is filed as cell-based, human.
Data set [13] concerns SW480 cells. Put plainly: MTS viability assay, SW480. Format: cell-based. The following applies: Homo sapiens, SW480, 72 hour incubation, read-out: IC50 [μM] SW-480 ED50. In a few lines: as §5
Data set [14] concerns the target T6, CDK9/CyclinT (Homo sapiens, UniProt P50750).
T6 construct: purchased Proqinase, Freiburg, Germany
Put plainly: ADP-Glo Kinase Assay, CDK9/CyclinT. Further: ATP at apparent Km (26 µM). The settings on record: read-out: % inhibition at 1 μM CDK9/CyclinT. It is filed as biochemical. In a few lines: as §4

Data set [15] concerns PC-3 adenocarcinoma prostate. Put plainly: Cytotoxic effects, PC-3. Format: cell-based, human.

Counter-ions that a name gives are not always drawn.

T5 sequence (P06493 whole entry): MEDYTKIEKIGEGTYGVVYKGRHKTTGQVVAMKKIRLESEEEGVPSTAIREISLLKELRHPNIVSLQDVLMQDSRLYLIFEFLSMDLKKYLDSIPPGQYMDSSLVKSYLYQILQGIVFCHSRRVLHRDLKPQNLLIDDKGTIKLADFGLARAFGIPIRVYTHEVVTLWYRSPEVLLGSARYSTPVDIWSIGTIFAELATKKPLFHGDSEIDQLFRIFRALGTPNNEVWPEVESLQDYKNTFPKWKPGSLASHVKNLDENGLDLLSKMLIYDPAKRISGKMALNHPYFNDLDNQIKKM
T5 sequence (P14635 whole entry partner): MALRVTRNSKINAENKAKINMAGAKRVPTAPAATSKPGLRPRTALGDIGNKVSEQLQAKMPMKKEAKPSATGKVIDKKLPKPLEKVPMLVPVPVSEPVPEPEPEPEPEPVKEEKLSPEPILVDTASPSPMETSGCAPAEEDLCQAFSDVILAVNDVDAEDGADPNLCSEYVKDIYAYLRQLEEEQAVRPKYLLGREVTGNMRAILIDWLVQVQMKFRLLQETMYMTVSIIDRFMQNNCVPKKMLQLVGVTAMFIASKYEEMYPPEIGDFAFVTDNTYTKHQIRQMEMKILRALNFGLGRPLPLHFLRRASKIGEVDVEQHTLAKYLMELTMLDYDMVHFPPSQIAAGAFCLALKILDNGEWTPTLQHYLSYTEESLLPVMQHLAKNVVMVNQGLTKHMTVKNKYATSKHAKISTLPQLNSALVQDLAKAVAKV
T1 sequence (P50613 whole entry): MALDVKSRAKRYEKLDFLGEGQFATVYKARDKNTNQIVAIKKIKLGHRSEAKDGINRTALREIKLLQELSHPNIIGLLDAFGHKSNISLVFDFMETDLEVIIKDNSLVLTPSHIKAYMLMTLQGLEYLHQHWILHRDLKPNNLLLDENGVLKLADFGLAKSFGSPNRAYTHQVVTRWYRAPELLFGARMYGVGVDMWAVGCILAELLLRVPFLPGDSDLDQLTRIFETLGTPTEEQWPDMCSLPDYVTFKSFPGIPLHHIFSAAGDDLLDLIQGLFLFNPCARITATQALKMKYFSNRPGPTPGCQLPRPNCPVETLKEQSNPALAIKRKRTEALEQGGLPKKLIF
T1 sequence (P51946 whole entry partner): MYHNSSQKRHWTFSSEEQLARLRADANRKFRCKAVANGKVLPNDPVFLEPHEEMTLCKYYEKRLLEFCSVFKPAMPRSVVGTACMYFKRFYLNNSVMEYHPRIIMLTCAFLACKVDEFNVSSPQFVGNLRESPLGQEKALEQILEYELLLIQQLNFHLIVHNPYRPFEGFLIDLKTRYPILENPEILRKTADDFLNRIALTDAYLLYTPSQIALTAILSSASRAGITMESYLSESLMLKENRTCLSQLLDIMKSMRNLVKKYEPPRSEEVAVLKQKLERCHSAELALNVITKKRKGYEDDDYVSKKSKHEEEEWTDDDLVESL
T1 sequence (P51948 whole entry partner): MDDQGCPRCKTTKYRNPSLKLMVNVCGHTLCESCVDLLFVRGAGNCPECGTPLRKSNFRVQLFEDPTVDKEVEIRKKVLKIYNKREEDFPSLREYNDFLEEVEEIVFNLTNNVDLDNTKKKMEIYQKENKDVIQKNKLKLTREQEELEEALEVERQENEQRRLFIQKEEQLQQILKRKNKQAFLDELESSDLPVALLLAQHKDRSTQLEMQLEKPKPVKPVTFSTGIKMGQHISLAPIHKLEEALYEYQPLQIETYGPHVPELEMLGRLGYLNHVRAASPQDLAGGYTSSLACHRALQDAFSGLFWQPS
T6 sequence (P50750 whole entry): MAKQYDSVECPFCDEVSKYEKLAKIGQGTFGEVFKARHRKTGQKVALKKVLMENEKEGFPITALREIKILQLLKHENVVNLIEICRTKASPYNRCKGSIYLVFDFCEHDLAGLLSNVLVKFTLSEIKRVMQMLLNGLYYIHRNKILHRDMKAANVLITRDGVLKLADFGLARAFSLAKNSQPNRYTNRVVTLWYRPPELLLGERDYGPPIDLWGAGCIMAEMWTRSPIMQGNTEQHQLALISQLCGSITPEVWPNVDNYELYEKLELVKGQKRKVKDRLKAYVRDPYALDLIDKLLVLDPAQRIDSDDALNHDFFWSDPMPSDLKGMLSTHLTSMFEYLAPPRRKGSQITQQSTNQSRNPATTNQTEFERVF
T6 sequence (O60563 whole entry partner): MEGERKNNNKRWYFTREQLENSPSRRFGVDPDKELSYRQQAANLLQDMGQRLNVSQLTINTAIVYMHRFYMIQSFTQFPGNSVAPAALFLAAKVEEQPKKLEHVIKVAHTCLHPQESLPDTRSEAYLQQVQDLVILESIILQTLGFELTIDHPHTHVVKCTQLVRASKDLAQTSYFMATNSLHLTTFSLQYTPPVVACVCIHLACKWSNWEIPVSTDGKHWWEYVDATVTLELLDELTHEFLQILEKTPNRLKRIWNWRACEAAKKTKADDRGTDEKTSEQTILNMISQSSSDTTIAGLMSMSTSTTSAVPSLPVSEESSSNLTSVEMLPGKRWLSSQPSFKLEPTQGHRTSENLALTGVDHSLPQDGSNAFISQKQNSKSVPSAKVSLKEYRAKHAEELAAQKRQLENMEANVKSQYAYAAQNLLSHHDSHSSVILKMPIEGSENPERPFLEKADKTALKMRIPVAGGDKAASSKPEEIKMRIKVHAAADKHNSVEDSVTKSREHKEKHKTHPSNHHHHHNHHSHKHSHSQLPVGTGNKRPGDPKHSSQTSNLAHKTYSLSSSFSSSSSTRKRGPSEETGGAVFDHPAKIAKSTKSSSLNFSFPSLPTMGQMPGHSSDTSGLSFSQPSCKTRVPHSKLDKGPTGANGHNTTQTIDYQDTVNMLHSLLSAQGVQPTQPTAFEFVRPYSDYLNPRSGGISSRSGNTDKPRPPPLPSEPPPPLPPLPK
T3 sequence (P49336 whole entry): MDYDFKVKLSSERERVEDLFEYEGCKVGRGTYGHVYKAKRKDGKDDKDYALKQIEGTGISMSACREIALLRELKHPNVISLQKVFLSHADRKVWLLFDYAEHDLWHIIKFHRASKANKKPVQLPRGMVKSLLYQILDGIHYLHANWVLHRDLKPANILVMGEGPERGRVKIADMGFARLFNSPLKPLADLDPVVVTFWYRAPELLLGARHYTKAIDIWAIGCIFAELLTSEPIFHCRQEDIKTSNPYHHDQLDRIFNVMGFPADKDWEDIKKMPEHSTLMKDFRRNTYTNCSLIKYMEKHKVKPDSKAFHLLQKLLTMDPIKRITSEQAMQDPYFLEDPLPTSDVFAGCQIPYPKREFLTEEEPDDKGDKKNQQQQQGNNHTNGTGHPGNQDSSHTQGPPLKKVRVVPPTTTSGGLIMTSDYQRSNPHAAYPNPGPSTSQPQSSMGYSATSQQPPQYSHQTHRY
T3 sequence (P24863 whole entry partner): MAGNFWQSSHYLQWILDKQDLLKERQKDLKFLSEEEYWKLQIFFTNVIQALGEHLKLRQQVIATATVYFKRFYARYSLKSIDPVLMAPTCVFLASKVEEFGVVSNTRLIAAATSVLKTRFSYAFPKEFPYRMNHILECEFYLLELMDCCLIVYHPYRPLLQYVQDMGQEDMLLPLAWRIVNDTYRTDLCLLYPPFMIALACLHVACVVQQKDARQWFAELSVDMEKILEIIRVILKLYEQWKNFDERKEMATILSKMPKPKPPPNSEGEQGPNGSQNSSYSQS
T2 sequence (Q00535 whole entry): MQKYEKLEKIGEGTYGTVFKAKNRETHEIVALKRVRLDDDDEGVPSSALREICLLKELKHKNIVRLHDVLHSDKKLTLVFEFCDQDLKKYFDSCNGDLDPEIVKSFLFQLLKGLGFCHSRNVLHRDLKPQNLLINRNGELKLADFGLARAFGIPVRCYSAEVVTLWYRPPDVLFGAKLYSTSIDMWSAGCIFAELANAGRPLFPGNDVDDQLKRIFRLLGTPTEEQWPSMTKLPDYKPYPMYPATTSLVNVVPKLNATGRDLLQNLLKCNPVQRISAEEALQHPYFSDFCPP
T2 sequence (Q15078 99-307 partner limits assumed): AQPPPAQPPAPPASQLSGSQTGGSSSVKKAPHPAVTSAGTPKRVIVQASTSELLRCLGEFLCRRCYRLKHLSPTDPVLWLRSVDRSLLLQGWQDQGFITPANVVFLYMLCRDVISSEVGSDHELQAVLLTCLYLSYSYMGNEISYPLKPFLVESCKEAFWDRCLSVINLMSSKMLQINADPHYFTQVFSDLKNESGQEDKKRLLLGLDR

As to `Cc1c(Br)c(Br)c2c3c1nc(N1CCNCC1)n3CCC2` [Example 1K], the cytotoxic effects entry in data set [1], in data set [4], in [6], in data set [8], in data set [10] and in data set [12] was “showed cytotoxic effects” in each case. The cytotoxic effects result in [15] is recorded as “showed cytotoxic effects”. Also, the inhibition at 1 µM in [2] came out at 0%; in [3], 13%; in data set [5], 76%; in data set [7], 0%; in data set [11], 0%; in [14] it was 3%. The results for the IC50 in [9] and in data set [13] were 0.7 µM and 1.1 µM, respectively.

For `Brc1c(Br)c2c3c(nc(N4CCNCC4)n3CCC2)c1Br` [Example 6, 7,8,9-tribromo-2-(piperazin-1-yl)-5,6-dihydro-4H-imidazo[4,5,1-ij]quinoline maleate], the cytotoxic effects entry in [1], in data set [4], in data set [6], in data set [8], in data set [10] and in data set [12] was “showed cytotoxic effects” in each case. Also, the cytotoxic effects result in [15] was “showed cytotoxic effects”. Moreover, the inhibition at 1 µM was 21% in [2]; 39% in [3]; 96% in data set [5]; 0% in data set [7]; 38% in data set [11]; 55% in data set [14]. Besides, the IC50 in data set [9] amounted to 0.4 µM; in data set [13], 1 µM.
